The values below come from patent US20220204539A1, “CD73 INHIBITORS” (BioArdis LLC, priority 2019, published 2022).

The target in this assay is T1, Recombinant Human 5′-Nucleotidase (CD73) (Homo sapiens, UniProt P21589).
T1 construct: CHO derived CD73 (Trp27-Lys547), with a C-terminal 6-His tag; 6-His (C); purchased R&D 5795-EN; host or cells: CHO
T1 sequence (P21589 27-547): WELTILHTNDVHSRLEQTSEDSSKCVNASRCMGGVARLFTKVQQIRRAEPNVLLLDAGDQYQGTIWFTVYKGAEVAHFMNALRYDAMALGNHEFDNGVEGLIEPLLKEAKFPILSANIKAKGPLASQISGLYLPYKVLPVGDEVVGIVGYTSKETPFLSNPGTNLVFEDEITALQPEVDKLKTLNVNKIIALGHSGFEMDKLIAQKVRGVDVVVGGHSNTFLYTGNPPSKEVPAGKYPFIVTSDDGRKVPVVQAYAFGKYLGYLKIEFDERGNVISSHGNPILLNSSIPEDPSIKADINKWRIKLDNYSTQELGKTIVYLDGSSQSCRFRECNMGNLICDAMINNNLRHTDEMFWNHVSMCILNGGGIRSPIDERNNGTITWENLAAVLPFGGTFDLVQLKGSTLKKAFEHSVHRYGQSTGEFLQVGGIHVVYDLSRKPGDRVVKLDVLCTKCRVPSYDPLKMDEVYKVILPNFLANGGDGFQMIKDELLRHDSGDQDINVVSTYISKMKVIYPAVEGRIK
Nature of the assay: CD73 Enzyme Assay. Particulars: human CD73 0.5 nM, AMP 30 μM, PiColorLock phosphate detection; read-out: Potency (IC50, CD73 enzyme assay). It counts as biochemical. From the text: Soluble recombinant CD73 catalyzes the conversion of adenosine monophosphate (AMP) to adenosine and inorganic phosphate. The phosphate detection reagent, PiColorLock™ (Innova Bioscience, Cat #303-0125) is based on the change in absorbance of the dye malachite green in the presence of inorganic phosphate (Pi) and this property can be exploited to measure any enzyme that generates Pi. Recombinant Human 5′-Nucleotidase (CD73) (R&D #5795-EN, CHO derived CD73 (Trp27-Lys547), with a C-terminal 6-His tag) was used in the enzymatic assay. This assay was run in a 384-well plate format (Corning® NBS™ 384 well plates, Cat #3640). The basic assay procedure involves two steps: 1) Enzyme reaction: The CD73 enzyme (R&D #5795-EN) is incubated in the presence or absence of compounds. AMP (sigma, cat #01930) is added to start the […] reaction. 2) Detection step: Gold mix is added to the assay system, then stabilizers are added. After incubation the absorbance of the solution is read at OD 635 nm. The recorded OD signal is proportional to the enzyme activity.
Briefly, 25 μl human CD73 (0.5 nM final concentration) in the enzymatic buffer solutions (20 mM Tris, 25 mM NaCl, 1 mM MgCl2, pH 7.5, 0.005% Tween-20) were mixed with various concentrations of the test compound (dissolved in 100% DMSO). These solutions were incubated for 15 min at 25° C., and subsequently 25 μl AMP (30 μM final concentration) was added to start the reaction. The final reaction mixture of enzyme-substrate-compound was incubated for 20 min at 37° C. Meanwhile ‘Gold mix’ was prepared shortly before use by adding 1/100 vol. of accelerator to the PiColorLock™ Gold reagent. 12 μL/well of the ‘Gold mix’ was added to assay plate containing 50 μL enzyme reaction buffer and incubated at 25° C. for 5 min. 5 μL/well stabilizer was added to the assay plate and incubated at 25° C. for 30 min. The absorbance of the well solutions was measured at 635 nm on a Spark 10M instrument (TECAN).
The percent (%) inhibition at each concentration of a compound was calculated relative to the OD value in the Max and Min control wells contained within each assay plate. The Max control wells contained enzyme and substrate as 0% inhibition, and the M control wells only contained substrate without enzyme as 100% inhibition. The concentrations and percent inhibition values for a test compound are plotted and the concentration of the compound required to achieve 50% inhibition (IC50) was determined with a four-parameter logistic dose response equation.
Regarding `O=P(O)(O)CP(=O)(O)OC[C@H]1OC(c2cnc3c(NCc4ccccc4)ncnn23)[C@@H](F)[C@@H]1O` (stereo in doubt) [Compound 3, [({[(2R,3R,4S,5S)-5-[4-(benzylamino)imidazo[2,1-f][1,2,4]triazin-7-yl]-4-fluoro-3-hydroxyoxolan-2-yl]methoxy}(hydroxy)phosphoryl)methyl]phosphonic Acid], the IC50 was over 1000 nM.

As for `O=P(O)(O)CP(=O)(O)OC[C@H]1O[C@H](c2cnc3c(NCc4ccccc4)ncnn23)[C@@H](F)[C@@H]1O` [Compound 4, [({[(2R,3R,4S,5R)-5-[4-(benzylamino)imidazo[2,1-f][1,2,4]triazin-7-yl]-4-fluoro-3-hydroxyoxolan-2-yl]methoxy}(hydroxy)phosphoryl)methyl]phosphonic Acid], the IC50 was over 1000 nM.

On to `O=P(O)(O)CP(=O)(O)OC[C@H]1O[C@@H](c2cnc3c(NC4CCCC4)nc(Cl)nn23)[C@@H](F)[C@@H]1O` [Compound 7, (((((2R,3R,4S,5S)-5-(2-chloro-4-(cyclopentylamino)imidazo[2,1-f][1,2,4]triazin-7-yl)-4-fluoro-3-hydroxytetrahydrofuran-2-yl)methoxy)(hydroxy)phosphoryl)methyl)phosphonic acid], for which the IC50 was in the range of 10 to 99 nM.

Turning to `O=P(O)(O)CP(=O)(O)OC[C@H]1O[C@@H](c2cnc3c(NCC4CCCO4)nc(Cl)nn23)[C@H](O)[C@@H]1O` (stereo partly drawn) [Compound 13, (((((2R,3S,4R,1S)-5-(2-chloro-4-(((tetrahydrofuran-2-yl)methyl)amino)imidazo[2,1-f][1,2,4]triazin-7-yl)-3,4-dihydroxytetrahydrofuran-2-yl)methoxy)(hydroxy)phosphoryl)methyl) phosphonic Acid], the IC50 is 10 to 99 nM.

On to `CN(C)[C@H]1CC[C@H](Nc2nc(Cl)nn3c([C@@H]4O[C@H](COP(=O)(O)CP(=O)(O)O)[C@@H](O)[C@H]4O)cnc23)C1` [Compound 25, (((((2R,3S,4R,5S)-5-(2-chloro-4-(((1S,3S)-3-(dimethylamino)cyclopentyl)amino)imidazo[2,1-f][1,2,4]triazin-7-yl)-3,4-dihydroxytetrahydrofuran-2-yl)methoxy)(hydroxy)phosphoryl)methyl)phosphonic acid], for which the IC50 was 10 to 99 nM.

For `O=C1C[C@H](Nc2nc(Cl)nn3c([C@@H]4O[C@H](COP(=O)(O)CP(=O)(O)O)[C@@H](O)[C@H]4O)cnc23)CN1` [Compound 26, [({[(2R,3S,4R,5S)-5-{2-chloro-4-[(5-oxopyrrolidin-3-yl)amino]imidazo[2,1-f][1,2,4]triazin-7-yl}-3,4-dihydroxyoxolan-2-yl]methoxy}(hydroxy)phosphoryl)methyl]phosphonic acid], the IC50 lay in the range of 10 to 99 nM.

Regarding `O=P(O)(O)CP(=O)(O)OC[C@H]1O[C@@H](c2cnc3c(N4CCC[C@@H]4c4ccccc4)nc(Cl)nn23)[C@H](O)[C@@H]1O` [Compound 31, [({[(2R,3S,4R,5S)-5-{2-chloro-4-[(2R)-2-phenylpyrrolidin-1-yl]imidazo[2,1-f][1,2,4]triazin-7-yl}-3,4-dihydroxyoxolan-2-yl]methoxy}(hydroxy)phosphoryl)methyl]phosphonic Acid], the IC50 was in the range of 10 to 99 nM.

For the compound `CC(C)(C)[C@@H]1CCCN1c1nc(Cl)nn2c([C@@H]3O[C@H](COP(=O)(O)CP(=O)(O)O)[C@@H](O)[C@H]3O)cnc12` [Compound 38, (((((2R,3S,4R,1S)-5-(4-((S)-2-(tert-butyl)pyrrolidin-1-yl)-2-chloroimidazo[2,1-f][1,2,4]triazin-7-yl)-3,4-dihydroxytetrahydrofuran-2-yl)methoxy)(hydroxy)phosphoryl)methyl)phosphonic Acid], the half-maximal inhibitory concentration (IC50) is 10 to 99 nM.

Turning to `CC(C)(C)[C@H]1CCCN1c1nc(Cl)nn2c([C@@H]3O[C@H](COP(=O)(O)CP(=O)(O)O)[C@@H](O)[C@H]3O)cnc12` [Compound 51, (((((2R,3S,4R,1S)-5-(4-((R)-2-(tert-butyl)pyrrolidin-1-yl)-2-chloroimidazo[2,1-f][1,2,4]triazin-7-yl)-3,4-dihydroxytetrahydrofuran-2-yl)methoxy)(hydroxy)phosphoryl)methyl)phosphonic Acid], the IC50 lay in the range of 10 to 99 nM.

By IC50 is commonly meant the point on the concentration scale where inhibition reaches its midpoint.
